Source: publication PMC8533149 (Biomolecules, 2021)

Tested on: HIV-1 LTR-III G-quadruplex (FAM/TAMRA-labeled LTR-III)
Assay: FRET melting assay, LTR-III G4
Assay type: binding
Settings: Table S1 primary screening, ligand:ODN 50:1, singlicate
Method: To evaluate stabilizing properties of the ligands in a complex with oligodeoxyribonucleotides (ODNs) melting with fluorescence registration was used. ODN (0.5 μM) (Table 1), labeled with 6-carboxyfluorescein (FAM) and 6-carboxytetramethylrhodamine (TAMRA) at the 5′- and 3′-end, respectively, were folded in lithium cacodylate buffer (10 mM, pH 7.4) with 100 mM KCl by heating at 95 °C for 5 min and gradually cooling to r.t. GFP chromophore analogs (5 mM solution in DMSO) were diluted with the same buffer to the final concentration of 25 μM and mixed with an equal volume of 0.5 μM ODN solution resulting in a molar ratio of 50:1 (total volume was 50 μL). For the titration experiments molar ratios of 20:1 and 2:1 were used. Samples were analyzed using DTprime qPCR system (DNA-Technology LLC, Moscow, Russia). Fluorescence was registered by detection of FAM emission at 520 nm upon excitation at 495 nm in the temperature range of 30–95 °C with 1 °C/min gradient. Tm was determined using the instrument software and ΔTm was calculated relative to ODN Tm in a buffer solution containing 0.25% (v/v) DMSO. The primary and secondary screening were carried out in singlicate and triplicate, respectively.

CC1=NC(=Cc2ccc(C(=O)O)cc2)C(=O)N1C [AI 89]
LTR-III ΔTm: -0.5 °C

COC(=O)c1ccc(C=C2N=C(C=Cc3ccc(OC)cc3)N(C)C2=O)cc1 [AI 116]
LTR-III ΔTm: 0.8 °C

COc1ccc(C=CC2=NC(=Cc3cc(OC)ccc3OC)C(=O)N2C)cc1 [AI 118]
LTR-III ΔTm: -0.1 °C

COc1ccc(C=CC2=NC(=Cc3ccc([N+](=O)[O-])cc3)C(=O)N2C)cc1 [AI 119]
LTR-III ΔTm: 1.4 °C

COc1ccc(C=CC2=NC(=Cc3cc4cc(OC)ccc4cc3OC)C(=O)N2C)cc1 [AI 126]
LTR-III ΔTm: 1.6 °C

CC(C)OC(=O)c1noc(=O)c(O)c1-c1ccc(O)cc1 [AL 23]
LTR-III ΔTm: 0 °C

CC(C)OC(=O)c1noc(C(=O)NC2CCCCC2)c1-c1cccs1 [AL 25]
LTR-III ΔTm: -0.1 °C

COc1ccc(NC(=O)c2onc(C(=O)OC(C)C)c2-c2ccc(OC)cc2)cc1 [AL 45]
LTR-III ΔTm: 0.2 °C

CCNCC.CCOC(=O)c1noc(=O)c(O)c1-c1ccccc1 [AL 58]
LTR-III ΔTm: 0.1 °C

COc1ccc(C=CC2=NC(=Cc3ccnc4ccccc34)C(=O)N2C)cc1 [AL 122]
LTR-III ΔTm: -0.6 °C

COc1ccc(C=CC2=NC(=Cc3ccnc4ccccc34)C(=O)N2C)cc1 [AL 125]
LTR-III ΔTm: 1.7 °C

CCC1=NC(=Cc2cc(C(C)(C)C)c(O)c(C(C)(C)C)c2)C(=O)N1C [AL 135.2]
LTR-III ΔTm: -1.3 °C

CN(C)c1ccc(C=C2NC(=S)NC2=O)cc1 [AL 165]
LTR-III ΔTm: -0.2 °C

CSC1=NC(=Cc2ccc(N(C)C)cc2)C(=O)N1 [AL 166.1]
LTR-III ΔTm: 0.1 °C

CCN(CC)c1ccc(C=C2NC(=S)NC2=O)cc1 [AL 172]
LTR-III ΔTm: -0.2 °C

CN1C(=O)C(=Cc2ccc(O[Si](c3ccccc3)(c3ccccc3)C(C)(C)C)cc2)N=C1c1ccccc1 [Amm 75]
LTR-III ΔTm: -0.3 °C

CN1C(=O)C(=Cc2ccc(O)cc2)N=C1CCCCNC(=O)OC(C)(C)C [Boc-AV-GFP]
LTR-III ΔTm: 0.2 °C

COc1cc(C=C2SC(=S)NC2=O)cc(OC)c1O [DOM]
LTR-III ΔTm: -0.6 °C

CC1=NC(=Cc2ccc(O)cc2)C(=O)N1 [GA 01]
LTR-III ΔTm: -0.4 °C

CN1C=NC(=Cc2ccc(O)cc2)C1=O [GA 02]
LTR-III ΔTm: -0.4 °C

CC1=NC(=Cc2ccc(O)cc2)C(=O)N1C [GA 03]
LTR-III ΔTm: 0.5 °C

CCC1=NC(=Cc2ccc(O)cc2)C(=O)N1C [GA 04]
LTR-III ΔTm: -0.1 °C

CCCC1=NC(=Cc2ccc(O)cc2)C(=O)N1C [GA 05]
LTR-III ΔTm: -0.5 °C

CC(C)C1=NC(=Cc2ccc(O)cc2)C(=O)N1C [GA 06]
LTR-III ΔTm: -0.7 °C

CC1=NC(=Cc2ccc(O)cc2)C(=O)N1CCO [GA 12]
LTR-III ΔTm: 0.3 °C

CCC1=NC(=Cc2ccc(O)cc2)C(=O)N1O [GA 15]
LTR-III ΔTm: -0.1 °C

CON1C(=O)C(=Cc2ccc(O)cc2)N=C1C [GA 16]
LTR-III ΔTm: 0.3 °C

CC(C)CCC1=NC(=Cc2ccc(O)cc2)C(=O)N1C [GA 18]
LTR-III ΔTm: -0.1 °C

CCN(CC)c1ccc(C=C2N=C(C)N(C)C2=O)cc1 [GC 01]
LTR-III ΔTm: 0.4 °C

CCN(CC)c1ccc(C=C2N=C(C)N(CCCC(=O)O)C2=O)cc1 [GC 03]
LTR-III ΔTm: 0.4 °C

CCN(CC)c1ccc(C=C2N=C(C)N(C)C2=O)cc1 [GC 04]
LTR-III ΔTm: 0 °C

CC1=NC(=Cc2c[nH]c3ccccc23)C(=O)N1C [GC 07]
LTR-III ΔTm: -0.4 °C

CN1C(=O)C(=Cc2ccc(O)cc2)N=C1Cc1ccccc1 [GFP-2-Bn]
LTR-III ΔTm: -1.5 °C

CNC(=O)C(=Cc1ccc(Br)cc1)NC(=O)c1ccccc1 [GR 83]
LTR-III ΔTm: -0.8 °C

CN1C(=O)C(=Cc2ccc(OCC(NC(=O)OC(C)(C)C)C(=O)O)cc2)N=C1c1ccccc1 (centres unmarked) [GR 161]
LTR-III ΔTm: -0.2 °C

O=C1NC(=S)SC1=Cc1ccc(O)cc1 [HBR]
LTR-III ΔTm: -0.2 °C

Cc1cc(/C=C2\SC(=S)NC2=O)ccc1O [HMBR]
LTR-III ΔTm: -0.6 °C

COc1ccc(C=C2N=C3C(=O)NCCN3C2=O)cc1 [JL 06.1]
LTR-III ΔTm: 0.1 °C

COc1ccc(C=C2N=C3C(=O)NCCN3C2=O)cc1OC [JL 06.2]
LTR-III ΔTm: 0.4 °C

CCN(CC)c1ccc(/C=C2\N=C3C(=O)NCCN3C2=O)cc1 [JL 19]
LTR-III ΔTm: 0.1 °C

CC(=O)Oc1ccc(C=C2N=C(C=C(OC(=O)c3ccc(C)cc3)c3ccc(C)cc3)N(C)C2=O)cc1 [M 202]
LTR-III ΔTm: -0.6 °C

CN1C(=O)C(=Cc2ccc(OC(=O)c3ccccc3)cc2)N=C1C=C(OC(=O)c1ccccc1)c1ccccc1 [M 228]
LTR-III ΔTm: -0.8 °C

CCC(=O)Oc1ccc(C=C2N=C(CC)OC2=O)cc1 [M 292]
LTR-III ΔTm: -0.6 °C

O=C1NC(C=Cc2cc(Br)c(O)c(Br)c2)=NC1=Cc1ccc(O)cc1 [M 295]
LTR-III ΔTm: -0.5 °C

COc1ccc(C=C2N=C(C)N(OC)C2=O)cc1 [M 312]
LTR-III ΔTm: -0.2 °C

CCC1=NC(=Cc2ccc(O)cc2)C(=O)N1OC [M 316]
LTR-III ΔTm: -0.3 °C

COc1ccc(C=C2N=C(C(C)(C)C)N(C)C2=O)cc1 [M 440]
LTR-III ΔTm: -0.1 °C

CCC1=NC(=Cc2ccc(OC)cc2)C(=O)N1C [M 497a2]
LTR-III ΔTm: -0.4 °C

CON1C(=O)C(=Cc2ccc(O)cc2)N=C1CCC(C)C [M 552]
LTR-III ΔTm: 0 °C

CC1=NC(=Cc2ccc(O)c(F)c2)C(=O)N1C [M 556]
LTR-III ΔTm: -0.2 °C

CON1C(=O)C=NC(=Cc2ccc(O)cc2)C1=O [M 577]
LTR-III ΔTm: 0.1 °C

C=CCN1C(=O)C(=Cc2ccc(O[Si](c3ccccc3)(c3ccccc3)C(C)(C)C)cc2)N=C1C [M 653]
LTR-III ΔTm: -0.2 °C

CC(=O)Oc1ccc(C=C2N=C(C)N(CCNC(=O)OC(C)(C)C)C2=O)cc1 [M 678]
LTR-III ΔTm: -0.4 °C

CCN(CC)c1ccc(C=C2N=C(C)N(C)C2=O)c(B(F)F)c1 [M 739]
LTR-III ΔTm: -0.4 °C

CCC1=NC(=Cc2ccc(N(CC)CC)cc2)C(=O)N1C [M 747]
LTR-III ΔTm: 0.6 °C

CN1C(=O)C(=Cc2ccc(O)cc2)N=C1c1ccccc1 [M 750]
LTR-III ΔTm: -0.2 °C

CC1=NC(=Cc2ccc(O)cc2)C(=O)N(O)C1=O [M 800]
LTR-III ΔTm: -0.2 °C

CC(C)CCC1=NC(=Cc2ccc(O)cc2)C(=O)N1 [M 803]
LTR-III ΔTm: -0.1 °C

CCN(CC)c1ccc(C=C2N=C(C)N(CCCC(=O)O)C2=O)cc1 [M 820]
LTR-III ΔTm: 0.1 °C

CC1=NC(=Cc2cc(F)c(O)c(F)c2)C(=O)N1CCCC(=O)O [M 894]
LTR-III ΔTm: -0.3 °C

CCN(CC)c1ccc(C=C2N=C(C=Cc3ccncc3)N(C)C2=O)cc1 [M 895]
LTR-III ΔTm: 0.8 °C

CC1=NC(=Cc2cc(Br)c(O)c(Br)c2)C(=O)N1C [M 906]
LTR-III ΔTm: -2.7 °C

COc1ccc(C(=O)Oc2ccccc2)cc1 [M 939]
LTR-III ΔTm: -1.1 °C

CCn1nnc2c(Nc3ccccc3)cccc2c1=O [M 958A]
LTR-III ΔTm: -0.7 °C

CN(C)C=CC1=NC(=Cc2ccc(O)cc2)C(=O)N1C [M 995a]
LTR-III ΔTm: 0.1 °C

CN1C(=O)C(=Cc2ccc(O)cc2)N=C1C=Cc1ccccc1 [M 996a]
LTR-III ΔTm: 0.1 °C

CC(=O)Oc1ccc(C=C2N=C(C=Cc3ccccc3)N(C)C2=O)cc1 [M 1009A]
LTR-III ΔTm: 0.5 °C

CC(=O)Oc1ccc(C=C2N=C(C=Cc3ccncc3)N(C)C2=O)cc1 [M 1009B]
LTR-III ΔTm: 0.5 °C

CCN(CC)c1ccc(C=C2N=C(C)NC2=O)cc1 [M 1045]
LTR-III ΔTm: 0.1 °C

CN(C)c1ccc(C(O)(c2ccc(N(C)C)cc2)c2ccccn2)cc1 [M 1122]
LTR-III ΔTm: -0.6 °C

COc1ccc(C(O)(c2ccccc2)c2ccccn2)cc1 (centres unmarked) [M 1136]
LTR-III ΔTm: -0.7 °C
